Among the data in patent US4213998A, “Inhibition of lipogenesis” (Shell Oil Company, priority 1979, dated 1980) are inhibition values, retold here.

This test concerns swine adipose tissue. Description: Inhibition of lipogenesis (incorporation of 14C-glucose into lipid) in swine adipose tissue slices. The test is classed as cell-based. Particulars: Sus scrofa, 100 micrograms per milliliter, 37° C., 2 hours, glucose-U-14C, insulin, 5% DMSO, triplicate, read-out: Percent Inhibition of lipogenesis compared to control. From the text:
The manner in which they cause this effect is not known with certainty; it is believed that they interfere with the synthesis of fatty acids in the tissues. Their effectiveness for this purpose has been ascertained by immersing sales of swine adipose tissue in a liquid medium containing radioactive glucose and the test chemical for a period of time, then isolating the lipid from the treated tissue and determining the incorporation of the radioactive carbon into lipid by means of scintillation counting techniques. These tests were conducted in swine adipose tissues because in swine, the primary site of lipogenesis--i.e., fatty acid synthesis--appears to be adipose tissue.
Described in more detail, the tests were conducted according to the following general procedure:
150 milligrams of slices of swine adipose tissue were incubated at 37° C. for 2 hours with shaking in 3 milliliters of Krebs-Ringer bicarbonate solution containing one-half the normal calcium ion concentration, 60 micromoles of glucose, 0.5 micro-Curie of glucose-U^14 C, and 300 microunits of insulin, and 5% dimethylsulfoxide (DMSO). The test compounds were added as a solution or suspension in DMSO and were present at a concentration of 100 micrograms per milliliter of the incubation mixture.
The incubation was terminated by addition of 0.25 milliliter of 1 N sulfuric acid. The resulting mixture was extracted with a total of 25 milliliters of chloroform/methanol (2:1 v/v). The extracts were washed according to Folch et al. (J. Biol. Chem. 226, 497-509, (1957)), air dried, and counted in a liquid scintillation counter with 15 milliliters of counting fluid (two parts toluene containing 0.4% w/v New England Nuclear Omnifluor/1part Triton X-100). The tests were conducted in triplicate and were accompanied by control tests in which all ingredients,proportions and conditions were the same except that no test compound was included. From the data obtained were calculated the precent inhibition of lipid synthesis by the test compounds in each case. The data obtained from the tests are set out in Table 1,as the percent inhibition of lipogenesis compared to the results obtained in the control tests wherein only the test compound was omitted.

The term inhibition denotes the drop in the measured response relative to a control, in per cent. As for `O=C(O)c1cc2cc(-c3ccccc3)ccc2o1` [Compound 1, 5-phenyl-2-benzofurancarboxylic acid], the inhibition at 100 µg/mL was 49%.
The same measure for `O=C(O)C1Cc2cc(-c3ccccc3)ccc2O1` (stereo not drawn) [Compound 2, 2,3-dihydro-5-phenyl-2-benzofurancarboxylic acid]: 50%; for `CCC(C)c1ccc2oc(C(=O)O)cc2c1` (stereo not drawn) [Compound 3]: 64%; for `O=C(O)c1cc2cc(C3CCCCC3)ccc2o1` [Compound 4]: 91%.
As for `O=C(O)c1cc2ccc(Oc3ccccc3)cc2o1` [Compound 5], the figure is 86%.
As for `O=C(c1ccccc1)c1ccc2oc(C(=O)O)cc2c1` [Compound 6], the figure is 44%; as for `CCCCCCOc1ccc2oc(C(=O)O)cc2c1` [Compound 7], 78%; as for `O=C(O)c1cc2cc(Cc3ccccc3)ccc2o1` [Compound 8], 87%.
As for `O=C(O)c1cc2c(Oc3ccccc3)cccc2o1` [Compound 9, 4-phenoxy-2-benzofurancarboxylic acid], the inhibition at 100 µg/mL worked out at 83%.
As for `CC(=O)c1ccc(-c2ccc3oc(C(=O)O)cc3c2)cc1` [Compound 10, 5-(4-acetylphenyl)-2-benzofurancarboxylic acid], the figure is 41%.
On to `CC(=O)Oc1ccc(-c2ccc3oc(C(=O)O)cc3c2)cc1` [Compound 11, 5-(4-(acetyloxy)phenyl)-2-benzofurancarboxylic acid], for which the inhibition at 100 µg/mL was 80%.
The same measure for `O=C(O)c1cc2cc(-c3ccc(Cl)cc3)ccc2o1` [Compound 12, 5-(4-chlorophenyl)-2-benzofurancarboxylic acid]: 55%; for `COc1cccc2cc(C(=O)O)oc12` [Compound 13]: 22%; for `COc1ccc2cc(C(=O)O)oc2c1OC` [Compound 14]: 24%.
As for `O=C(O)c1cc2cccc(Cl)c2o1` [Compound 15], the figure is 59%.
Consider `O=C(O)c1cc2cc(-c3ccc(O)cc3)ccc2o1` [Compound 16, 5-(4-hydroxyphenyl)-2-benzofurancarboxylic acid], for which the inhibition at 100 µg/mL came out at 30%.
As for `COc1ccc(-c2ccc3oc(C(=O)O)cc3c2)cc1` [Compound 17, 5-(4-methoxyphenyl)-2-benzofurancarboxylic acid], the figure is 56%; as for `CCC(C)c1ccc2c(c1)CC(C(=O)O)O2` (stereo not drawn) [Compound 18], 35%; as for `O=C(O)C1Cc2cc(C3CCCCC3)ccc2O1` (stereo not drawn) [Compound 19], 72%.
As for `O=C(O)C1Cc2cc(Cc3ccccc3)ccc2O1` (stereo not drawn) [Compound 20], the figure is 40%; as for `CCCCCCOc1ccc2c(c1)CC(C(=O)O)O2` (stereo not drawn) [Compound 21], 49%.
The same measure for `O=C(O)C1Cc2ccc(Oc3ccccc3)cc2O1` (stereo not drawn) [Compound 22]: 62%.
For the compound `O=C(O)C1Cc2c(Oc3ccccc3)cccc2O1` (stereo not drawn) [Compound 23], the inhibition at 100 µg/mL was 27%.
The same measure for `O=C(O)C1Cc2cc(-c3ccc(Cl)cc3)ccc2O1` (stereo not drawn) [Compound 24]: 56%.
